The target of this experiment is Sodium/potassium-transporting ATPase (Canis familiaris). The experiment is described as follows: Compound was evaluated for its ability to inhibit the specific [3H]-ouabain binding to dog kidney Na+/K+ ATPase.

One may read the IC50 as the concentration that gives 50% inhibition. The low end stands for higher potency, the high end for lower potency. `C[C@]12CC[C@H](O)C[C@H]1CC[C@@H]1[C@@H]2CC[C@]2(C)[C@@H](/C=C/C=O)CC[C@]12O` came in with an IC50 of 60 nM.

Compound `C[C@H]1/C(=C/C(=O)OCCN(C)C)CCC2C1C(=O)C[C@H]1C(C)(C)[C@@H](O)CC[C@]21C` (stereo partly drawn) [[(1R,4bR,7S,8aR)-7-Hydroxy-1,4b,8,8-tetramethyl-10-oxo-dodecahydro-phenanthren-(2E)-ylidene]-acetic acid 2-dimethylamino-ethyl ester] gave an IC50 of 100 nM.

These data come from BindingDB's records for doi:10.1021/jm980108d (Prassis Istituto Di Ricerche Sigma-Tau, 1998).
